Results on 18 molecules are retold here after patent publication US20260217708A1, “FUSED BENZAZEPINE DERIVATIVES FOR USE IN THE TREATMENT OF CANCER AND EPILEPSY” (UCB BIOPHARMA SRL, priority 2023, published 2026).

Experiment [1] deals with T1, system Xc^− (Homo sapiens, UniProt Q9UPY5).
T1 sequence (Q9UPY5 1-501): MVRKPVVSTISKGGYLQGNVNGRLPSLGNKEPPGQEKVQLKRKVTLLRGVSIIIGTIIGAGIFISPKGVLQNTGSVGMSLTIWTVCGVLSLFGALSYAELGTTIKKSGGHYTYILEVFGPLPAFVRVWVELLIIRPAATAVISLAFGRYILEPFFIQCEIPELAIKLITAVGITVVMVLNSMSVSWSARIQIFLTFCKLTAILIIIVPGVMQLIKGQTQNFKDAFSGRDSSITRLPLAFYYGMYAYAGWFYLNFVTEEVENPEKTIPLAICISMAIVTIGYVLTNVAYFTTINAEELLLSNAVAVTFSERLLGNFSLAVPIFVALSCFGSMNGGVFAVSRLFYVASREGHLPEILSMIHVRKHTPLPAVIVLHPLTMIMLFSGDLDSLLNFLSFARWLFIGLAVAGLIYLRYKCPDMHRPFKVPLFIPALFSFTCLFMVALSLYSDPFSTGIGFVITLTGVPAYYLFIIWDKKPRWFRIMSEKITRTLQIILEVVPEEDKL
T1 sequence (P08195 1-529 partner): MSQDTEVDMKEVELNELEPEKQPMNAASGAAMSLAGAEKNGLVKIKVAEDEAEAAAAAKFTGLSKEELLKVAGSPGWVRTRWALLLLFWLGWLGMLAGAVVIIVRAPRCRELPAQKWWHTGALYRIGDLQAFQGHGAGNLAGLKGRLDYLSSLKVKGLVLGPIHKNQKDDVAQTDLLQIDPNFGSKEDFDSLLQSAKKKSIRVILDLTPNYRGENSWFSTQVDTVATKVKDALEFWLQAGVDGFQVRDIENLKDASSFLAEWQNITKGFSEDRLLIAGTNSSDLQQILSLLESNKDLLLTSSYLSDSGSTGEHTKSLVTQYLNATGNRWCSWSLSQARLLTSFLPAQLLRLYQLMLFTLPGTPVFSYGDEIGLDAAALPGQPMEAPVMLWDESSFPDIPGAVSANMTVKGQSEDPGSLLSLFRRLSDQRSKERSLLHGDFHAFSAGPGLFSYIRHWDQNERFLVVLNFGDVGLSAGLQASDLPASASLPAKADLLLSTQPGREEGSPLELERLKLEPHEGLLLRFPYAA
The experiment in a line: [^14C]L-Cystine uptake assay. The class given is cell-based. Also noted: endogenous in cells; host or cells: H4 cells. The following applies: H4 cells, sodium-free HEPES buffer, 0.5 μM L-[14C]Cystine and 4.5 μM L-Cystine, 1 hour at 37° C.; read-out: pIC50 [^14C] L-Cystine uptake assay (converted). In a few lines:
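Compound effect is given as pIC50, taken between controls of 1% DMSO and 50 μM Erastin. Human H4 cells were pretreated 15 min with compound in sodium-free buffer, then took up 0.5 μM [14C]cystine with 4.5 μM cold cystine for 1 hour at 37° C, read by scintillation proximity counting.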

Experiment [2] addresses T1, system Xc^−. Put plainly: Cystine-induced glutamate release assay. The class given is cell-based. The arrangement: endogenous in cells; host or cells: H4 cells. The following applies: H4 cells, sodium-free HEPES buffer, 50 μM L-Cystine, 2 hours, Amplex Red glutamate readout; read-out: pIC50 Cystine-induced glutamate release assay (converted). The procedure, abridged:
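IC50 (reported as pIC50) normalized to DMSO 1% and Erastin 50 μM controls, from Amplex Red fluorescence of glutamate exported into supernatant. H4 cells were washed into sodium-free buffer to exclude EAAT transport, then given compound with 50 μM L-cystine for 2 h in the incubator.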

Structures are written as SMILES.

`O=C(CN1C(=O)C(CO)c2ncccc2-c2c(F)cc(Cl)cc21)Nc1ccc(Cl)c(F)c1` (single isomer, unassigned) [#382, 2-[9-chloro-11-fluoro-5-(hydroxymethyl)-6-oxo-5H-pyrido[2,3-d][1]benzazepin-7-yl]-N-(4-chloro-3-fluoro-phenyl)acetamide]: the IC50 in experiment [1] and in experiment [2] was 15.8 to 39.8 nM each time.

As to `Cc1cc2c(c(F)n1)-c1cccnc1[C@@H](C)C(=O)N2CC(=O)Nc1ccc(F)c(Cl)c1` [#241, N-(3-chloro-4-fluoro-phenyl)-2-[(10R)-3-fluoro-5,10-dimethyl-9-oxo-4,8,12-triazatricyclo[9.4.0.0^2,7]pentadeca-1(15),2,4,6,11,13-hexaen-8-yl]acetamide], the results for the IC50 in experiment [1] and in experiment [2] were 15.8 to 39.8 nM and below 15.8 nM, respectively.

Consider `Cc1cc2c(c(F)n1)-c1ccc(Cl)cc1CC(=O)N2CC(=O)Nc1ccc(C(F)(F)F)cc1` [#85, 2-(9-chloro-1-fluoro-3-methyl-6-oxo-7H-pyrido[4,3-d][3]benzazepin-5-yl)-N-[4-(trifluoromethyl)phenyl]acetamide], for which the IC50 in experiment [1] is 100 to 501 nM; in experiment [2], 39.8 to 100 nM.

Turning to `C[C@H]1C(=O)N(CC(=O)Nc2ccc(C(F)F)cc2)c2cc(N3CC[C@H](O)C3)nc(F)c2-c2cccnc21` (single isomer, unassigned) [#279, N-[4-(difluoromethyl)phenyl]-2-[3-fluoro-5-[3-hydroxypyrrolidin-1-yl]-10-methyl-9-oxo-4,8,12-triazatricyclo[9.4.0.0^2,7]pentadeca-1(15),2,4,6,11,13-hexaen-8-yl]acetamide], the IC50 in experiment [1] and in experiment [2] was below 15.8 nM in each case.

As for `Cc1cc2c(n(C)c1=O)-c1cccnc1[C@@H](C)C(=O)N2CC(=O)Nc1ccc(C(F)(F)F)cc1` (single isomer, unassigned) [#208, Enantiomer (10S) or (10R) of N-[4-(trifluoromethyl)phenyl]-2-[3,5,10-trimethyl-4,9-dioxo-3,8,12-triazatricyclo[9.4.0.0^2,7]pentadeca-1(11),2(7),5,12,14-pentaen-8-yl]acetamide], the IC50 in experiment [1] and in experiment [2] was below 15.8 nM in each case.

In the case of `Cc1cc2c(c(OCCO)n1)-c1cccnc1[C@@H](C)C(=O)N2CC(=O)Nc1ccc(C(F)F)cc1` [#374, N-[4-(difluoromethyl)phenyl]-2-[(10R)-3-(2-hydroxyethoxy)-5,10-dimethyl-9-oxo-4,8,12-triazatricyclo[9.4.0.0^2,7]pentadeca-1(11),2(7),3,5,12,14-hexaen-8-yl]acetamide], the IC50 in experiment [1] and in experiment [2] was below 15.8 nM in each case.

For the molecule `Cc1cc2c(cn1)-c1cncnc1C(C)C(=O)N2CC(=O)Nc1ccc(Cl)c(F)c1` (single isomer, unassigned) [#369, N-(4-chloro-3-fluoro-phenyl)-2-[8,13-dimethyl-9-oxo-4,6,10,14-tetrazatricyclo[9.4.0.0^2,7]pentadeca-1(15),2,4,6,11,13-hexaen-10-yl]acetamide], the IC50 in experiment [1] and in experiment [2] was 15.8 to 39.8 nM each time.

Turning to `Cc1cc2c(c(Cl)n1)-c1ccnn1C(C)C(=O)N2CC(=O)Nc1ccc(C(F)F)cc1` (single isomer, unassigned) [#386, 2-[14-chloro-7,12-dimethyl-8-oxo-5,6,9,13-tetrazatricyclo[8.4.0.0^2,6]tetradeca-1(14),2,4,10,12-pentaen-9-yl]-N-[4-(difluoromethyl)phenyl]acetamide], the IC50 in experiment [1] and in experiment [2] was below 15.8 nM in each case.

For `Cc1cc2c(cc1C)-n1ccnc1CC(=O)N2CC(=O)Nc1ccc(C(F)(F)F)cc1` [#8, 2-(8,9-dimethyl-5-oxo-4H-imidazo[1,2-a][1,5]benzodiazepin-6-yl)-N-[4-(trifluoromethyl)phenyl]acetamide], the IC50 in experiment [1] is 39.8 to 100 nM; in experiment [2] it was 100 to 501 nM.

As for `Cc1cc2c(c(C#N)n1)-c1cccnc1C(C)C(=O)N2CC(=O)Nc1ccc(Cl)c(F)c1` (single isomer, unassigned) [#155, N-(4-chloro-3-fluoro-phenyl)-2-[3-cyano-5,10-dimethyl-9-oxo-4,8,12-triazatricyclo[9.4.0.0^2,7]pentadeca-1(11),2(7),3,5,12,14-hexaen-8-yl]acetamide], the IC50 in experiment [1] and in experiment [2] was below 15.8 nM throughout.

Take `Cc1cc2c(cn1)-c1cccnc1[C@@H](C)C(=O)N2CC(=O)Nc1ccc(C(F)(F)F)cc1` (single isomer, unassigned) [#201, Enantiomer (10R) or (10S) of 2-[5,10-dimethyl-9-oxo-4,8,12-triazatricyclo[9.4.0.0^2,7]pentadeca-1(11),2(7),3,5,12,14-hexaen-8-yl]-N-[4-(trifluoromethyl)phenyl]acetamide]: the IC50 in experiment [1] was below 15.8 nM; in experiment [2], 15.8 to 39.8 nM.

In the case of `Cc1cc2c(c(F)n1)-c1cc(F)cnc1[C@H](C)C(=O)N2CC(=O)Nc1ccc(Cl)c(F)c1` (single isomer, unassigned) [#260], the IC50 in experiment [1] and in experiment [2] was below 15.8 nM throughout.

With `Cc1cc2c(c(F)n1)-c1cccnc1[C@@H](C)C(=O)N2CC(=O)Nc1ccc2c(Cl)nccc2c1` (single isomer, unassigned) [#240], the results for the IC50 in experiment [1] and in experiment [2] were 39.8 to 100 nM and 15.8 to 39.8 nM, respectively.

`Cc1cc2c(c(C3CC3)n1)-c1ccccc1CC(=O)N2CC(=O)Nc1ccc(C(F)(F)F)cc1` [#73, 2-(1-cyclopropyl-3-methyl-6-oxo-7H-pyrido[4,3-d][3]benzazepin-5-yl)-N-[4-(trifluoromethyl)phenyl]acetamide]: the IC50 in experiment [1] and in experiment [2] was 100 to 501 nM each time.

For the molecule `Cc1cc2c(c(Cl)n1)-c1cncnc1[C@@H](C)C(=O)N2CC(=O)Nc1ccc(C(F)(F)F)cc1` (single isomer, unassigned) [#207, Enantiomer (8S) or (8R) of 2-[15-chloro-8,13-dimethyl-9-oxo-4,6,10,14-tetrazatricyclo[9.4.0.0^2,7]pentadeca-1(11),2,4,6,12,14-hexaen-10-yl]-N-[4-(trifluoromethyl)phenyl]acetamide], the IC50 in experiment [1] was below 15.8 nM; in experiment [2], 15.8 to 39.8 nM.

As to `COc1cc2c(c(=O)n1C)-c1ccccc1C(C)C(=O)N2CC(=O)Nc1ccc(C(F)F)cc1` (stereo not drawn) [#362, N-[4-(difluoromethyl)phenyl]-2-(3-methoxy-2,7-dimethyl-1,6-dioxo-7H-pyrido[4,3-d][3]benzazepin-5-yl)acetamide], the IC50 was below 15.8 nM in experiment [1] and 15.8 to 39.8 nM in experiment [2].

Take `CC1C(=O)N(CC(=O)Nc2ccc(Cl)c(F)c2)c2cc(CN3CC(F)(F)C3)ccc2-c2cccnc21` (stereo not drawn) [#344, N-(4-chloro-3-fluoro-phenyl)-2-[9-[(3,3-difluoroazetidin-1-yl)methyl]-5-methyl-6-oxo-5H-pyrido[2,3-d][1]benzazepin-7-yl]acetamide]: the IC50 is 100 to 501 nM in experiment [1] and 39.8 to 100 nM in experiment [2].

In the case of `CC1C(=O)N(CC(=O)Nc2ccc(C(F)F)cc2)c2cc(OC(F)F)nc(Cl)c2-c2cccnc21` (single isomer, unassigned) [#416, 2-[3-chloro-5-(difluoromethoxy)-10-methyl-9-oxo-4,8,12-triazatricyclo[9.4.0.0^2,7]pentadeca-1(15),2,4,6,11,13-hexaen-8-yl]-N-[4-(difluoromethyl)phenyl]acetamide], the IC50 is below 15.8 nM in experiment [1] and 15.8 to 39.8 nM in experiment [2].
